Entries after “also recorded” stand apart in the source; their conditions may differ.
Test system: STAT signaling pathway
Experiment: Western blot, STAT pathway
Format: cell-based, human
Conditions: for STAT3 pathway (pSTAT3): Example 8, 24 hours, actives 3-5 μmol/L, inactives 30-50 μmol/L
Procedure: For Western blot analysis, cell lysates are harvested by addition of RIPA lysis buffers containing 25 mM Tris.HCl pH 7.6, 150 mM NaCl, 1% NP-40, 1% sodium deoxycholate, 0.1% SDS, 10 mM EDTA, 1 mM sodium orthovanadate, 0.1 mM sodium molybdate, 1 mM phenylmethylsulfonyl fluoride, 20 μg/mL aprotinin, and 5 μg/mL leupeptin. The cell lysates are harvested and processed as described in Madhunapantula, S. V. et al., Cancer Res, 2007, 67:3626-36. Treatment conditions: 1-1.5×10^6 melanoma cells are plated in 100 mm culture dishes, 48 h later, treated with leelamine (3-6 μmol/L) for 3 to 24 hours. Protein lysates are collected for Western blotting. The blots are probed with antibodies according to each supplier's recommendations: antibodies to total Akt, phospho-Akt (Ser473), total PRAS40, phospho-PRAS40 (Thr246), total CREB, phospho-CREB (Ser133), phospho-p70 S6 kinase (Thr389), total Erk1/2, phospho-Erk1/2 (Thr202/Tyr 204), total CDK2, phospho-CDK2 (Thr160), phospho-Rb (Ser807/811), total Stat, phospho-Stat1 (Tyr701), Phospho-Stat-2(Tyr690), Phospho-Stat3(Ser727), phospho-Stat3(Tyr705) and cleaved PARP from Cell Signaling Technology (Danvers, Mass.); total PRAS40 from Invitrogen (Carlsbad, Calif.); cyclin D1, Bcl-2, α-enolase and secondary antibodies conjugated with horseradish peroxidase from Santa Cruz Biotechnology (Santa Cruz, Calif.). Immunoblots are developed using the enhanced chemiluminescence (ECL) detection system (Thermo Fisher Scientific, Rockford, Ill.). Intensity of protein bands is quantified using ImageJ software.
For Western blot analysis, 1×10^6 melanoma cells are plated in 100 mm culture dishes, 48 hours later, treated with empty liposomes or Nanolipolee-007 (3-6 μmol/L) for 3 to 24 hours. Protein lysates collected for Western blotting. The cell lysates are harvested in an RIPA lysis buffer containing protease and phosphatases inhibitors (Pierce Biotechnology, Rockford, Ill.). Blots are probed with antibodies according to each supplier's recommendations: antibodies to total Akt, phospho-Akt (Ser473), total PRAS40, phospho-PRAS40 (Thr246), total Bad, pBad (Ser 112) total Erk1/2, phospho-Erk1/2 (Thr202/Tyr 204), total CDK2, phospho-CDK2 (Thr160), phospho-Rb (Ser807/811), total Stat, phospho-Stat3 (Tyr705), caspase-3 and cleaved PARP from Cell Signaling Technology (Danvers, Mass.); total PRAS40 from Invitrogen (Carlsbad, Calif.); cyclin D1, α-enolase and secondary antibodies conjugated with horseradish peroxidase from Santa Cruz Biotechnology (Santa Cruz, Calif.). Immunoblots are developed using the enhanced chemiluminescence (ECL) detection system (Thermo Fisher Scientific, Rockford, Ill.). Intensity of protein bands is quantified using ImageJ software.
Cell lysates are harvested by addition of RIPA lysis buffers containing 25 mM Tris*HCl pH 7.6, 150 mM NaCl, 1% NP-40, 1% sodium deoxycholate, 0.1% SDS, 10 mM EDTA, 1 mM sodium orthovanadate, 0.1 mM sodium molybdate, 1 mM phenylmethylsulfonyl fluoride, 20 μg/mL aprotinin, and 5 μg/mL leupeptin. The cell lysates are harvested and processed as described. […] Protein lysates collected for Western blotting. […] Intensity of protein bands is quantified using ImageJ software. […]

CC(C)C1=CC2=CCC3[C@](C)(CCC[C@@]3(C)C(=O)O)C2CC1 (stereo partly drawn) [Abietic acid, (1R,4aR)-1,4a-dimethyl-7-(propan-2-yl)-1,2,3,4,4a,4b,5,6,10,10a-decahydrophenanthrene-1-carboxylic acid, reference compound]
STAT3 pathway (pSTAT3): unable to affect

CC(C)C1=CC2=CCC3[C@](C)(CN)CCC[C@]3(C)C2CC1 (stereo partly drawn) [Compound 4a, {[(1R,4aR)-1,4a-dimethyl-7-(propan-2-yl)-1,2,3,4,4a,4b,5,6,10,10a-decahydrophenanthren-1-yl]methyl}amine]
STAT3 pathway (pSTAT3): decrease pSTAT3 expression at all doses

CC(C)c1ccc2c(c1)CCC1[C@](C)(CNC(=O)C(F)(F)F)CCC[C@]21C (stereo partly drawn) [Compound 5a, N-{[(1R,4aS)-1,4a-dimethyl-7-(propan-2-yl)-1,2,3,4,4a,9,10,10a-octahydrophenanthren-1-yl]methyl}-2,2,2-trifluoroacetamide]
STAT3 pathway (pSTAT3): decrease pSTAT3 expression at all doses

CC(C)c1ccc2c(c1)CCC1[C@](C)(CN)CCC[C@]21C (stereo partly drawn) [Leelamine, [(1R,4aS)-1,4a-dimethyl-7-(propan-2-yl)-1,2,3,4,4a,9,10,10a-octahydrophenanthren-1-yl]methanamine]
STAT pathway signaling (3 to 6 μmol/L for 3 to 24 hours, UACC 903 and 1205 Lu): decrease activity
STAT3 pathway (pSTAT3): completely blocked pSTAT3 expression; also recorded: decrease pSTAT3 expression at all doses

Reference: patent US9839618B2, “Compositions and methods relating to proliferative diseases” (The Penn State Research Foundation, priority 2010, dated 2017)
